Test results taken from US12350308B2, “Phosphorylcholine conjugates and uses thereof” (TPCERA LTD., priority 2013, dated 2025).
*1 amine or outer side, *2 acyl side, *3 side chain or, on linkers, in order; H or OH if unused. Where a SMILES comes first, the peptide text is derived from it. [ ]: non-standard residue; d: D form. X1 = C[N+](C)(C)CCOP(=O)([O-])Oc1ccc(N=Nc2cc(C[C@H](N[*:1])C(=O)[*:2])ccc2O)cc1

Tests used:
DBA/1 CIA mice = assay: Arthritis score in mice with established CIA (treatment from day 16); assay type: in vivo
From the text: Rheumatoid Arthritis is a progressive joint deformation disease caused by severe inflammation. CIA mice were subjected to subcutaneous injections of TD-PC, tuftsin derivative (SEQ ID NO: 25), PC, a mix of TD and PC, or PBS, 3 times a week. […] Treatment started as day 16 after disease induction when disease symptoms were already notable. […] The significant reduction in arthritis score was illustrious from day 7 after treatment administration and lasted until day 35 (the day mice were sacrificed).

CIA mice [1] = assay: Anti-collagen type II antibodies in sera of CIA mice; assay type: in vivo; settings: day 30, sera dilution 1:200
Method: Titers of anti-collagen type II antibodies in mice sera at a dilution of 1:200 (OD at 405 nm) were measured at day 30 after disease induction while arthritis was fully manifested (FIG. 27). […] The mean OD level of the anti-collagen type II antibodies in the mice treated with TD-PC per os was 0.685±0.09 while the corresponding mean OD level in control mice treated with PBS per os was 1.09±0.17. Furthermore, the mean OD level of the anti-collagen type II antibodies in mice treated with TD-PC s.c was 0.615±0.08, whereas the corresponding mean OD level mice treated with PBS s.c was 1.03±0.13 (p<0.001).

NZBxW/F1 lupus mice = assay: Survival of lupus mice treated with TD-PC (Kaplan-Meier); assay type: in vivo; settings: already at week 24
Method: A main complication of lupus nephritis is a short survival time due to severe kidney failure. Therefore, the survival time of mice treated either with TD-PC or with PC, tuftsin derivative (SEQ ID NO: 25) or PBS (control) was analyzed.

[2] = test system: splenocytes of NZBW/F1 female mice; assay: Cytokine mRNA in splenocytes of lupus mice treated with TD-PC (RT-PCR); assay type: in vivo; settings: week 30; vs PBS
Method: NZBW/F1 female mice having lupus were treated with TD-PC (SEQ ID NO: 25 conjugated to PC) or the corresponding control treatments. Mice were sacrificed at week 30, and their splenocytes were studied in-vitro for the expression of pro-inflammatory cytokines (IFNγ, IL-17) and anti-inflammatory (TGFβ, IL-10) cytokines using RT-PCR. […] In contrast, TD-PC increased the mRNA expression of the anti-inflammatory cytokine TGFβ in the (p<0.001) compared to the mRNA expressed by splenocytes derived from PBS-treated mice (FIG. 24A).

THP-1 cells = assay: Shift of M1 polarized macrophages to M2 macrophages secreting IL-10; assay type: cell-based, human; settings: 5 μg/ml for 72 hrs; in comparison to OVA-PC
Method: The relative expression of the anti-inflammatory cytokine IL-10 was analyzed in human macrophages treated with TD-PC (TD-PC), and PC-Ovalbumin (OVA-PC). Specifically, THP-1 cells (a monocytic cell line established from human monocytic leukemia) were induced to differentiation into adherent macrophage-like phenotype (M0) by culturing the cells (10^5 cells/ml) in the presence of phorbol 12-myristate 13-acetate (PMA; 80 nM) and VD3 (100 nM). For inducing differentiation from M0 to M1 (M1 polarized macrophages) the cells were further incubated with LPS (1 μg/ml), IFNγ (20 ng/ml). For shifting from M1 to M2 macrophages (M2 polarized macrophages) the cells were washed and further incubated with IL-4 (10 ng/ml) and IL-13 (10 ng/ml) for 72 hours.
In order to determine whether TD-PC, TD, PC or PC-OVA can induce a shift form M1 cells to M2 macrophages secreting anti-inflammatory cytokine IL-10, M1 polarized macrophages were incubated with each molecule or conjugate at 5 μg/ml for 72 hrs.

CIA mice [3] = assay: Arthritis score in CIA mice treated orally or s.c. with TD-PC; assay type: in vivo; settings: day 31
From the text: The main characteristic of rheumatoid arthritis is joint deformation due to high inflammation. The TD-PC effect on arthritis score in CIA mice was monitored. […] Arthritis score was lower in both groups of TD-PC treatment (oral and s.c.) starting two weeks after disease induction—day 14, until the mice were sacrificed—day 31.

Breg cells = assay: Breg expansion in splenocytes of CIA mice (FACS), Example 17; assay type: in vivo; settings: subsets CD19+IL-10+TIM-1+ and IL-10highCD5highCD1dhigh; vs PBS
Method: The mean percentage of Breg cells in isolated splenocytes following treatment with TD-PC or PBS was measured within two main subsets CD19+IL-10+TIM-1+ (representative data: FIG. 30A, statistics: FIG. 30C, n=15) and IL-10^highCD5^highCD1d^high (representative data: FIG. 30B, statistics: FIG. 30D, n=15).

CD4+CD25+FOXP3+ Tregs = assay: Treg expansion in spleen cells of lupus mice treated with TD-PC (FACS); assay type: in vivo; settings: gating on CD4+ T cells; PBS 4%
From the text: The percentage of CD4+CD25+FOXP3+ Tregs phenotype subset in spleen cells following treatment with TD-PC, tuftsin derivative (SEQ ID NO: 25), PC or PBS, is elucidated in FIGS. 25A-25B.

C[C@@H](O)[C@H](N)C(=O)N[C@@H](CCCCN)C(=O)N1CCC[C@H]1C(=O)N[C@@H](CCCNC(=N)N)C(=O)NCC(=O)N[C@@H](Cc1ccc(O)c(N=Nc2ccc(OP(=O)([O-])OCC[N+](C)(C)C)cc2)c1)C(=O)O [TD-PC, Thr-Lys-Pro-Arg-Gly-Tyr-PC] (H-TKPRG[X1]-OH)
mean arthritis score (DBA/1 CIA mice; day 35, s.c. 3 times a week, PBS 13.8±0.45): 6.8±0.8 | average arthritis score (DBA/1 CIA mice; time 0 (treatment initiation, day 16 after disease induction), baseline): 3.6±0.9 | mean OD level of anti-collagen type II antibodies (CIA mice [1]; per os, PBS 1.09±0.17): 0.685±0.09 OD at 405 nm | mean OD level of anti-collagen type II antibodies (CIA mice [1]; s.c, PBS 1.03±0.13): 0.615±0.08 OD at 405 nm | percentage of death number vs PBS injected mice (NZBxW/F1 lupus mice): significant difference | mRNA expression of IFNγ in splenocytes [2]: inhibited | mRNA expression of TGFβ in splenocytes [2]: increased | shift of M1 macrophages to M2 macrophages secreting IL-10 (THP-1 cells): significant shift | mean arthritis score (CIA mice [3]; TD-PC treated groups (oral and s.c.), control 11.8): 1.5 (ranged from 0 to 4) | mean arthritis score (CIA mice [3]; oral, PBS oral 12.6±1.14): 1.6±1.5 | mean arthritis score (CIA mice [3]; s.c., PBS s.c 11±1.22): 1.4±0.84 | Breg phenotype expansion in isolated splenocytes (Breg cells): significantly stimulated | CD4+CD25+FOXP3+ Tregs in spleen cells (CD4+CD25+FOXP3+ Tregs): 18%
